Read-outs that look alike come from different tables or passages of the source.
Columns and labels:
[1] = test system: vaccinia virus WR in BS-C-1 cells; experiment: microbe, parasite or virus in culture; format: cell-based; settings: Orthopoxvirus vaccinia, BSC-1, 20 h, read-out: Cell Prot EC50
[2] = test system: vaccinia virus WR in BS-C-1 cells; format: cell-based
[3] = test system: BS-C-1 cells; settings: African green monkey
[4] = cited from earlier work
[5] = Solubility in cell growth medium by light scattering; settings: at the EC50 / over the range of concentrations used in the activity assays
[6] = test system: vaccinia virus WR in BS-C-1 cells; experiment: microbe, parasite or virus in culture; format: cell-based; settings: Orthopoxvirus vaccinia, BSC-1, 20 h, read-out: Plaque Red EC50
[7] = test system: multiple orthopoxviruses, including two strains of variola virus; settings: cited from earlier work

SMILES	EC50 [1] [µM]	Trapped by dsDNA [2]	Tox 72 h TC50 [3]	Tox 120 h TC50 [3]	Toxicity on intravenous administration [4]	Solubility in cell growth medium [5]	EC50 [6] [µM]	Growth of orthopoxviruses in cell cultures [7]
Nc1ccn(C[C@@H](CO)OCP(=O)(O)O)c(=O)n1.O.O [CDV, (S)-1-(3-hydroxy-2-phosphonylmethoxypropyl)cytosine, reference compound]	132	No	>500 ∞M	300 ∞M	nephrotoxicity	–	–	–
COC(=O)c1cccc2c1-c1ccccc1/C2=N\O [Compound 1]	–	No	–	20 ∞M	–	–	–	–
CCOC(=O)c1c(NC(=O)/C=C/C(=O)O)sc(C)c1-c1ccccc1 [Compound 2]	–	No	–	–	–	–	–	–
CCn1c2ccccc2c2ccc(/C=N/n3cnnc3)cc21 [Compound 3]	–	No	36 ∞M	3 ∞M	–	–	–	–
Cc1csc2c(N3CCN(C(=O)NC(C)(C)C)CC3)ncnc12 [Compound 4]	–	No	–	40 ∞M	–	–	–	–
CCNc1nc(SCc2ccc(Cl)cc2)nc2sc3c(c12)CCN(C)C3 [Compound 5]	–	No	–	5 ∞M	–	–	–	–
Cc1cc(/N=C/c2cc(Cl)cc(Cl)c2O)no1 [Compound 6]	–	No	50 ∞M	20 ∞M	–	–	–	–
Cc1c(/N=C/c2cc(Br)cc(Br)c2O)cccc1C(=O)O [Compound 7]	–	No	38 ∞M	20 ∞M	–	–	–	–
Cc1cc(OC(=O)c2ccco2)nc(SCc2c(Cl)cccc2Cl)n1 [Compound 8]	–	No	>100 ∞M	>100 ∞M	–	just slightly insoluble	–	–
O=C(Nc1ccccc1C(=O)O)OCC1c2ccccc2-c2ccccc21 [Compound 9]	104	No	40 ∞M	20 ∞M	–	–	–	–
CCS(=O)(=O)N1CCN=C1SCc1ccc(Cl)cc1Cl [Compound 10]	–	No	–	–	–	just slightly insoluble	–	–
Cc1ccc2c(Sc3ccc(Cl)cc3)c(C(=O)O)[nH]c2c1 [Compound 11]	130	No	174 ∞M	120 ∞M	–	–	–	–
N=C1S/C(=C/c2ccco2)C(=O)N1c1nccs1 [Compound 12]	–	No	>100 ∞M	50 ∞M	–	just slightly insoluble	–	–
O=C(O)Cn1c2ccc(Cl)cc2c2nc3ccccc3nc21 [Compound 13]	–	No	13 ∞M	30 ∞M	–	just slightly insoluble	–	–
N=C1/C(=C/c2coc3ccccc3c2=O)C(=O)N=C2SC=NN12 [Compound 14]	188	No	>200 ∞M	50 ∞M	–	–	150	–
CC(=O)n1c2ccccc2c2nc(C)sc21 [Compound 15]	236	No	>200 ∞M	75 ∞M	–	–	–	–
O=C1/C(=C/C2CCCO2)CC/C1=C\C1CCCO1 (stereo not drawn) [Compound 16]	–	No	>100 ∞M	50 ∞M	–	just slightly insoluble	–	–
O=C(NN1C(=O)C2C3C=CC(C4CC34)C2C1=O)c1ccc(C(F)(F)F)cc1 (stereo not drawn) [Compound 30, 4-trifluoromethyl-N-(3,3a,4,4a,5,5a,6,6a-octahydro-1,3-dioxo-4,6-ethenocycloprop[f]isoindol-2(1H)-yl)-benzamide]	–	–	–	–	–	–	–	inhibit the growth
